Test results taken from article PMC9421654, “Discovery of Substituted Di(pyridin-2-yl)-1,2,4-thiadiazol-5-amines as Novel Macrofilaricidal Compounds for the Treatment of Human Filarial Infections” (Journal of Medicinal Chemistry, 2022).
Converted amounts (≈) assume the structure as drawn. “And” between values parts separate entries of the source, which are not always exact repeats. Equal values may be shown once. Read-outs that look alike come from different tables or passages of the source.

Legend:
[1] = tested on: O. gutturosa adult male worms; test: O. gutturosa adult worm ex vivo assay, motility; type: cell-based, Onchocerca gutturosa; details: Onchocerca gutturosa
Procedure, shortened: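 Adult male O. gutturosa from naturally infected cattle were cultured in supplemented MEM at 37 °C, 5% CO2, with four worms per concentration in serial 1-in-4 dilutions. Motility (0–10 scale) was scored every 24 h to 120 h. EC50 (geomean, n=2) for motility reduction came from 4PL fits, and viability was checked by MTT at 120 h.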

[2] = tested on: O. gutturosa adult male worms; test: O. gutturosa adult worm ex vivo assay, MTT/formazan viability; type: cell-based, Onchocerca gutturosa; details: Onchocerca gutturosa, supplement; SD in brackets in the PDF table; read-out: O. gutturosa EC50 (uM) MTT viability inhibition
Procedure, shortened: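 Adult male worms from naturally infected Gambian cattle were kept individually in MEM with 10% newborn calf serum at 37 °C, 5% CO2; four worms per concentration. Motility was scored 0-10 every 24 h to 120 h as a percentage of maximum, with ≥50% reduction versus untreated counted active. Afterwards, MTT (0.5 mg/mL, 30 min) formazan was read at 490 nm.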

[3] = Kinetic solubility measurement; type: physicochemical; details: 10 mM DMSO stock solutions
Procedure, shortened: (§1)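 Human and rat liver microsomes (0.3 mg/mL) with 1 mM NADPH and 3µM substrate, 30 minutes at 37 °C in pH 7.4 phosphate/MgCl2, triplicate; LC-MS/MS percentage remaining. LogD: octanol/aqueous buffer (pH 7.4, 2.2, 6.8, 5), 24 h shaking at room temperature. Kinetic solubility: 200 µM, 2% DMSO, 24 h, filtered.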

[4] = LogD measurement (octanol-water); type: physicochemical
Procedure, shortened: as §1

[5] = Liver microsome metabolic stability assay, rat; type: in vitro ADME; details: Table 1; 3 μM, 30 min
Protocol: (§2) Liver Microsome Metabolic Stability Assay: Incubations were performed at 37 °C in a Dubnoff Shaking water bath using 2 mL 96-well incubation plates. Liver microsome protein concentration was 0.3 mg/mL the final concentration of NADPH was 1 mM. Substrate concentrations are 3µM, incubation time is 30 minutes, and all tests are done in triplicate. The incubation was conducted in 200 mM Phosphate buffer containing 2 mM magnesium chloride, pH=7.4 and the total incubation volume was 0.5 mL. Samples were analyzed via LC-MS/MS and reported as percentage remaining after 30minute incubation, which can then be converted to half-life and intrinsic clearance. […]

[6] = Liver microsome metabolic stability assay, human; type: in vitro ADME; details: 3 μM, 30 min
Protocol: as §2

Mouse pharmacokinetics = type: in vivo; details: male CD-1 mouse, PO 30 mg/kg suspension
Excerpt: All animal experiments were approved by the Institutional Animal Care and Use Committee (IACUC) of Bristol Myers Squibb.

THLE-2 cells = test: THLE-2 cytotoxicity assay (ATP); details: Homo sapiens, THLE-2, 24 h, read-out: THLE IC50
Procedure, shortened: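 THLE-2 cells in supplemented LHC-8 medium were exposed for 24 or 72 h to final concentrations of 0.01–300 μM. Viability was read as ATP by CellTiter-Glo luminescence and normalized to DMSO vehicle. IC50 came from nonlinear regression of dose-response curves.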

[7] = Liver S9 metabolic stability assay, rat; type: in vitro ADME; details: 3 μM, 60 min
Procedure, shortened: (§3)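 Rat and human liver S9 (0.75 and 1.2 mg/ml) with 1 mM NADPH, 0.5 mM UDPGA, 2.5 mM GSH, 0.05 mg/ml PAPS, 3µM substrate, 60 min at 37 °C in Tris/MgCl2 pH 7.4. Mouse microsomes 0.3 mg/mL, 1 mM NADPH, 3µM, 30 min, phosphate pH 7.4. LC-MS/MS, % remaining, triplicate.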

[8] = Liver S9 metabolic stability assay, human; type: in vitro ADME; details: 3 μM, 60 min
Procedure, shortened: as §3

[9] = tested on: L. sigmodontis adult worms; design: method as in PMID 35834918; details: infected mice; cited from earlier work
P-glycoprotein (MDR1) = molecular target: T1, P-glycoprotein (MDR1) (Homo sapiens, UniProt P08183); test: MDCK/MDR1 permeability and efflux; type: in vitro ADME; details: dog
T1 construct: expressed in transfected cells; host or cells: MDCK (Madin Darby canine kidney) cells
Excerpt: (§4) Our approach was to target compounds with efflux ratio (ER) >2.5 in the MDCK cell line transfected with MDR1 (multidrug resistance-1 transfected Madin Darby canine kidney cell line). […] Our goal was to impart structural elements designed to impart Pgp recognition.

P-gp (MDR1) = molecular target: T2, P-gp (MDR1) (Homo sapiens, UniProt P08183); test: MDCK/MDR1 permeability and efflux; type: in vitro ADME; details: dog
T2 construct: expressed in transfected cells; host or cells: MDCK (Madin Darby canine kidney) cells
Excerpt: as §4

[10] = molecular target: T3, hERG potassium channels (KCNH2, expressed in HEK293 cells) (Homo sapiens, UniProt Q12809); test: hERG inhibition; type: cell-based; details: supplement
T3 construct: expressed in transfected cells

[11] = tested on: L. sigmodontis adult worms; test: In vivo efficacy, L. sigmodontis-infected jirds; design: species or system jird (Meriones unguiculatus); details: 2 mg/kg QD 5d SC
[12] = tested on: L. sigmodontis adult worms; details: mouse, in vivo
[13] = read-out: O. gutturosa EC50 μM (SD), ex vivo adult worm motility reduction, SD in brackets
[14] = read-out: O. gutturosa EC50 (uM) motility inhibition, supplement, SD in brackets in the PDF table
[15] = supplement, read-out: measured logD

T2 sequence (P08183 whole entry): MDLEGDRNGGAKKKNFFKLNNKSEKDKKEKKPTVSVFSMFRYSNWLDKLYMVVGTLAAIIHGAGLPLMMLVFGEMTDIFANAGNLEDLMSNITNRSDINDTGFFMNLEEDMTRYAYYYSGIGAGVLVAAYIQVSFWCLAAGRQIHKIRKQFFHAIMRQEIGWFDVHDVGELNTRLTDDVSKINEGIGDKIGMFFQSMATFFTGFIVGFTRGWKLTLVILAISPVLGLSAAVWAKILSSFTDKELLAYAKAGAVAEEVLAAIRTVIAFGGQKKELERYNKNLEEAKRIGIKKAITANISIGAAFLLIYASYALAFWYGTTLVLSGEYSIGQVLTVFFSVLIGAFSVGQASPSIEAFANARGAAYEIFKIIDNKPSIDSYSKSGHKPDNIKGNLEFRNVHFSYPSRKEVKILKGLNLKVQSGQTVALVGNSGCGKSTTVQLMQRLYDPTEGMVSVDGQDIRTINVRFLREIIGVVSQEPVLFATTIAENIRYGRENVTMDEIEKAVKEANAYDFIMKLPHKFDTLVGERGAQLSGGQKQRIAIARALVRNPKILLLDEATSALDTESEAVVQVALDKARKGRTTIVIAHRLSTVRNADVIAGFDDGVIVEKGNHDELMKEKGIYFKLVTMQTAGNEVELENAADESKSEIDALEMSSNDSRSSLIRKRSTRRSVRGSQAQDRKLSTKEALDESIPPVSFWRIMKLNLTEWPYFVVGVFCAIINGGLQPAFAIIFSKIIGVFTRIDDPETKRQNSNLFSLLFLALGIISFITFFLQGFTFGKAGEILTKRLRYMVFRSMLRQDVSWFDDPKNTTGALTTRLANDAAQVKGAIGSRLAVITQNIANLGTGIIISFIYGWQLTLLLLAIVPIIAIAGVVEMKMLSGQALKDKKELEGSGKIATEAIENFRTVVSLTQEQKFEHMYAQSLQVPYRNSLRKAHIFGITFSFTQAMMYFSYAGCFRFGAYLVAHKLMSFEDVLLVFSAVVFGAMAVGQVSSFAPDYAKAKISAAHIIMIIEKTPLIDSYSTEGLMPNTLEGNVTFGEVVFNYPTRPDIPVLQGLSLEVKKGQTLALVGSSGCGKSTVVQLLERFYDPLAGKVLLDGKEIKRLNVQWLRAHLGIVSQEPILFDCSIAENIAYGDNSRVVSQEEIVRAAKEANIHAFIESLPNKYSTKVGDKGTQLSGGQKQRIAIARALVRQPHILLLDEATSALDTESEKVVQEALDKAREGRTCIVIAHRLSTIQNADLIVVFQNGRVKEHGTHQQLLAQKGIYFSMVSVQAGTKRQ
T1 sequence (P08183 whole entry): as above
T3 sequence (Q12809 whole entry): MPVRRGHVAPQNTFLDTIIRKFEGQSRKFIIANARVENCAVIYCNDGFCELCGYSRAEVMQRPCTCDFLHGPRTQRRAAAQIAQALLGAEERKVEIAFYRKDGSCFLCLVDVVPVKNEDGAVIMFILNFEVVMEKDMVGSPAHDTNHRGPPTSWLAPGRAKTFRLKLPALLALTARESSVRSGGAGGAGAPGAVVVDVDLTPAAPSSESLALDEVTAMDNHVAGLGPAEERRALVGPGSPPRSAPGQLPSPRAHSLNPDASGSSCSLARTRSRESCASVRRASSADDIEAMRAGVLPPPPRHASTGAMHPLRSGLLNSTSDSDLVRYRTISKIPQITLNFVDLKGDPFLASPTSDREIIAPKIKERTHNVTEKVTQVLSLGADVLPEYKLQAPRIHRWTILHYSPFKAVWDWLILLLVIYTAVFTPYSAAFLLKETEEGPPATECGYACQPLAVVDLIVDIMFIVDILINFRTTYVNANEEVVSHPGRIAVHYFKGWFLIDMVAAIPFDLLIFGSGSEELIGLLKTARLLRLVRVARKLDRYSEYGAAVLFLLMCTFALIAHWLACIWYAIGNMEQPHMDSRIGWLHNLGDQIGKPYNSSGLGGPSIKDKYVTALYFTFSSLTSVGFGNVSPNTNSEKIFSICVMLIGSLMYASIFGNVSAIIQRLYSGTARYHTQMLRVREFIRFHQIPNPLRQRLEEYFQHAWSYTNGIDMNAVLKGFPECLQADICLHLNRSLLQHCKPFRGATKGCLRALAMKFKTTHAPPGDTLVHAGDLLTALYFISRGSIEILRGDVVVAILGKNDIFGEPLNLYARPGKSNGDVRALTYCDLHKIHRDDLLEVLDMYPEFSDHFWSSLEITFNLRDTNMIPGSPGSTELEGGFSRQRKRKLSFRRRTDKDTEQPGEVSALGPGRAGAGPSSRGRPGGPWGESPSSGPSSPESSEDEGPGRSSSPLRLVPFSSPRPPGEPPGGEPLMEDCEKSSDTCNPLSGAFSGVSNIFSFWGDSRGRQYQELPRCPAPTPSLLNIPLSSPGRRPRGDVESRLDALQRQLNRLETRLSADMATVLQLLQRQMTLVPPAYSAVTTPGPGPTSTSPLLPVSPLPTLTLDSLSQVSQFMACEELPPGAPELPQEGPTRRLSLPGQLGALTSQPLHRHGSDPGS

| Compound | EC50 [1, 13] | EC50 [1, 14] | EC50 [2] | solubility kinetic at 24 h [3] | logD at 24 h [4, 15] | Rat Microsomes [5] | Human Microsomes [6] | AUC(0-inf) (Mouse pharmacokinetics) | Cmax (Mouse pharmacokinetics) | Tmax (Mouse pharmacokinetics) | IC50 (THLE-2 cells) | further results |
| --- | --- | --- | --- | --- | --- | --- | --- | --- | --- | --- | --- | --- |
| Cc1cccnc1Nc1nnc(-c2ccc(OC3CCOCC3)cn2)s1 [Compound 4, 3-Methyl-N-{5-[5-(oxan-4-yloxy)pyridin-2-yl]-1,3,4-thiadiazol-2-yl}pyridin-2-amine] | 2.6 µM | > 12 µM | 2.8 µM | 0.4 µM (≈ 0.148 µg/mL) | 2.7 | 89 % remaining | 100 % remaining | – | – | – | – | – |
| COc1ccc(Nc2nc(-c3ccccn3)ns2)nc1 [Compound 2] | 1.7 µM | – | 1.5 µM | 62.7 µM (≈ 17.9 µg/mL) | – | 78 % remaining | 90 % remaining | 3.61 ± 0.86 µM·h | 1260 ± 290 nM | 78 ± 30 min | > 300000 nM | – |
| COc1ccc(Nc2nc(-c3ccccn3)cs2)nc1 [Compound 1] | 0.27 µM | – | 0.94 µM | – | – | – | – | 1.58 ± 0.27 µM·h | 690 ± 180 nM | 30 ± 0 min | 72400 nM | Rat S9 metabolic stability [7]: 51 % remaining; Human S9 metabolic stability [8]: 59 % remaining; reduction of adult L. sigmodontis worms [9]: 68% |
| Cc1cccnc1Nc1nnc(-c2ccc(OC3CCOCC3)cn2)o1 [Compound 7, (3-Methyl-pyridin-2-yl)-{5-[5-(tetrahydro-pyran-4-yloxy)-pyridin-2-yl]-[1,3,4]oxadiazol-2-yl}-amine] | 0.94 µM | 0.935 µM | 6.5 µM | 12.8 µM (≈ 4.52 µg/mL) | 1.55 | 39 % remaining | 83 % remaining | – | – | – | – | – |
| CC(C)Oc1ccc(-c2nsc(Nc3ncccc3C(N)=O)n2)nc1 [Compound 59, 2-((3-(5-Isopropoxypyridin-2-yl)-1,2,4-thiadiazol-5-yl)amino)nicotinamide] | 2.6 µM | – | 3.4 µM | 0.3 µM (≈ 0.107 µg/mL) | 1.6 | – | – | – | – | – | – | logD at 24 h ([4]; pH 7.4, read-out: logD): 1.6; Papp A→B (P-glycoprotein (MDR1)): 0.79 ×10⁻⁶ cm/s; Papp A→B (P-gp (MDR1)): 0.8 ×10⁻⁶ cm/s; IC50 [10]: > 30000 nM |
| Flubendazole [FBZ, reference compound] | – | – | – | – | – | – | – | – | – | – | – | adult worm burden reduction ([11]; jirds infected SC with 40 L3 larvae (Fig 2C)): -100%; reduction of adult worm burden ([11]; patent, naturally infected jirds): -100%; adult worm burden reduction [12]: -98.8% and -100% |
